Reference: the supplement of paper PMC10307832

How the values were obtained:
Experiment in all cases: relative viability (nuclei count vs DMSO), 5 days (fraction); higher = more cells survive
AZD1208 + Luminespib = compound: N[C@@H]1CCCN(c2c(/C=C3\SC(=O)NC3=O)cccc2-c2ccccc2)C1 [AZD1208] + CCNC(=O)c1noc(-c2cc(C(C)C)c(O)cc2O)c1-c1ccc(CN2CCOCC2)cc1 [Luminespib] (partner 0.01 µM)
How it was run: (§1)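 Lung cancer cell lines in 1536-well plates were dosed by pin tool the day after seeding, either with one drug alone or with a fixed anchor-drug dose plus five library-drug doses (not always all listed) in √10 steps. After 5 days, cells were fixed and their nuclei stained in one step (final 0.05% Triton X-100, 1% formaldehyde, 1 ug/ml Hoechst), then counted on 4× images. Relative viability is the nuclei count in treated wells divided by that in vehicle wells. Values are medians of duplicate plates.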

AZD1208 + Dasatinib = compound: N[C@@H]1CCCN(c2c(/C=C3\SC(=O)NC3=O)cccc2-c2ccccc2)C1 [AZD1208] + Cc1nc(Nc2ncc(C(=O)Nc3c(C)cccc3Cl)s2)cc(N2CCN(CCO)CC2)n1 [Dasatinib] (partner 0.075 µM)
How it was run: as §1

XMD14-99 + Lapatinib = compound: CN1CCN(CC1)C2=CC(=C(C=C2)NC3=NC(=C(S3)C(=O)C4=C(C=CC=C4Cl)Cl)N)OC [XMD14-99] + CS(=O)(=O)CCNCc1ccc(-c2ccc3ncnc(Nc4ccc(OCc5cccc(F)c5)c(Cl)c4)c3c2)o1 [Lapatinib] (partner 2 µM)
How it was run: as §1

XMD14-99 + Navitoclax = compound: CN1CCN(CC1)C2=CC(=C(C=C2)NC3=NC(=C(S3)C(=O)C4=C(C=CC=C4Cl)Cl)N)OC [XMD14-99] + CC1(C)CCC(c2ccc(Cl)cc2)=C(CN2CCN(c3ccc(C(=O)NS(=O)(=O)c4ccc(N[C@H](CCN5CCOCC5)CSc5ccccc5)c(S(=O)(=O)C(F)(F)F)c4)cc3)CC2)C1 [Navitoclax] (partner 0.5 µM)
How it was run: as §1

Cell Line | relative viability (AZD1208 + Luminespib; first compound 0.08 µM) | relative viability (AZD1208 + Luminespib; first compound 0.253 µM) | relative viability (AZD1208 + Luminespib; first compound 0.8 µM) | relative viability (AZD1208 + Luminespib; first compound 2.53 µM) | relative viability (AZD1208 + Luminespib; first compound 8 µM) | relative viability (AZD1208 + Dasatinib; first compound 0.08 µM) | relative viability (AZD1208 + Dasatinib; first compound 0.253 µM) | relative viability (AZD1208 + Dasatinib; first compound 0.8 µM) | relative viability (AZD1208 + Dasatinib; first compound 2.53 µM) | relative viability (AZD1208 + Dasatinib; first compound 8 µM) | relative viability (XMD14-99 + Lapatinib; first compound 0.08 µM) | relative viability (XMD14-99 + Lapatinib; first compound 0.8 µM) | relative viability (XMD14-99 + Lapatinib; first compound 2.53 µM) | relative viability (XMD14-99 + Lapatinib; first compound 8 µM) | relative viability (XMD14-99 + Navitoclax; first compound 0.08 µM) | relative viability (XMD14-99 + Navitoclax; first compound 0.8 µM) | relative viability (XMD14-99 + Navitoclax; first compound 2.53 µM) | relative viability (XMD14-99 + Navitoclax; first compound 8 µM)
PC-3 [JPC-3] | 0.668 | 0.7 | 0.706 | 0.693 | 0.588 | 1.13 | 1.11 | 1.01 | 1.05 | 0.957 | 0.491 | 0.443 | 0.41 | 0.387 | 0.794 | 0.756 | 0.768 | 0.667
NCI-H1666 | 0.977 | 1.07 | 0.911 | 1 | 1.01 | 0.843 | 0.829 | 0.828 | 0.763 | 0.834 | 0.741 | 0.582 | 0.721 | 0.399 | 0.994 | 0.771 | 0.797 | 0.566
NCI-H2087 | 0.166 | 0.145 | 0.14 | 0.141 | 0.171 | 0.763 | 0.824 | 0.641 | 0.573 | 0.715 | 1.07 | 1.08 | 0.842 | 0.702 | 0.964 | 0.897 | 0.632 | 0.463
NCI-H1734 | 0.18 | 0.197 | 0.187 | 0.159 | 0.168 | 0.41 | 0.435 | 0.426 | 0.393 | 0.307 | 1.01 | 0.997 | 1.05 | 0.825 | 0.805 | 0.816 | 0.765 | 0.654
